# Values of other authors as cited in US10736931B2, “Pharmaceutical compositions comprising plant extracts and methods for reducing duration of a common cold using same” (Matrixx Initiatives, Inc., priority 2014, dated 2020).
# Biological target: acetylcholine esterase (Homo sapiens, UniProt P22303)
# Conditions: ceramides from L. operculata; Feitosa et al. 2011
# acetylcholine esterase, sequence (P22303 32-614): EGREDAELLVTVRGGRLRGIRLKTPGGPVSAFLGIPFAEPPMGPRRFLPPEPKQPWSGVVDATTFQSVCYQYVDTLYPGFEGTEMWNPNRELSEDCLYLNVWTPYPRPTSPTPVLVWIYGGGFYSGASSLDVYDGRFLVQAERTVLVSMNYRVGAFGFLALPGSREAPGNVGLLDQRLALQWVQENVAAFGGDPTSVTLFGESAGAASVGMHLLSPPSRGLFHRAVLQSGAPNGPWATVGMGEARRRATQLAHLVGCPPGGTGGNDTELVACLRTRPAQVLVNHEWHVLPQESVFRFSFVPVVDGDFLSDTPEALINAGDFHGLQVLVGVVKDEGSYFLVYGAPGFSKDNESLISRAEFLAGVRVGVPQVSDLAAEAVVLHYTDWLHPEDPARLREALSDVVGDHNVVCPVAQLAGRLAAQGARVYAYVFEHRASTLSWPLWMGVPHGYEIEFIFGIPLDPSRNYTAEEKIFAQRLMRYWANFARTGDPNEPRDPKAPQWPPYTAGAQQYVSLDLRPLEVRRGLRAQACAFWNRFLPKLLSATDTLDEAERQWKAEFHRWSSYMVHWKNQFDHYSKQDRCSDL
substance,measurement,value
ceramides,acetylcholine esterase inhibitory effects,high
